Patent publication US12077503B2, “Substituted cyclic amides and their use as herbicides” (FMC CORPORATION, priority 2015, dated 2024)

Legend:
Assay type in all cases: in vivo
[1] = tested on: pigweed (Amaranthus retroflexus); assay: Test A preemergence; settings: Amaranthus retroflexus, pre-emergence, 240 h, Preemergence
Kochia (Kochia scoparia) [2] = assay: Test A preemergence; settings: Bassia scoparia, pre-emergence, 240 h, Preemergence
Method in brief: (§1)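 Each rating is a visual injury score from 0 to 100 given about 10 d after treatment, judged against untreated controls kept alongside in the greenhouse. In loam soil–sand blend, seeds got a preemergence directed soil spray, while postemergence plants were 2 to 10 cm tall at spraying.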

[3] = tested on: ragweed (common ragweed, Ambrosia elatior); assay: Test A preemergence; settings: Ambrosia artemisiifolia, pre-emergence, 240 h, Preemergence
Method in brief: as §1

[4] = tested on: barnyardgrass (Echinochloa crus-galli); assay: Test A preemergence; settings: Echinochloa crus-galli, pre-emergence, 240 h, Preemergence
Method in brief: as §1

[5] = tested on: ryegrass, Italian (Italian ryegrass, Lolium multiflorum); assay: Test A preemergence; settings: Lolium multiflorum, pre-emergence, 240 h, Preemergence
Method in brief: as §1

[6] = tested on: giant foxtail (Setaria faberii); assay: Test A preemergence; settings: Setaria faberi, pre-emergence, 240 h, Preemergence
Method in brief: as §1

[7] = tested on: pigweed (Amaranthus retroflexus); assay: Test A postemergence; settings: Amaranthus retroflexus, post-emergence, 240 h, Postemergence, read-out: Plant response rating, Pigweed
Method in brief: as §1

[8] = tested on: Galium (catchweed bedstraw, Galium aparine); assay: Test A postemergence; settings: Galium, post-emergence, 240 h, Postemergence, read-out: Plant response rating, Galium
Method in brief: as §1

[9] = tested on: wheat (Triticum aestivum); assay: Test A postemergence; settings: Triticum aestivum, post-emergence, 240 h, Postemergence, read-out: Plant response rating, Wheat
Method in brief: as §1

corn (Zea mays) = assay: Test A postemergence; settings: Zea mays, post-emergence, 240 h, Postemergence
Method in brief: as §1

Kochia (Kochia scoparia) [10] = assay: Test A postemergence; settings: Bassia scoparia, post-emergence, 240 h, Postemergence, read-out: Plant response rating, Kochia
Method in brief: as §1

[11] = tested on: blackgrass (Alopecurus myosuroides); assay: Test A postemergence; settings: Alopecurus myosuroides, post-emergence, 240 h, Postemergence, read-out: Plant response rating, Blackgrass
Method in brief: as §1

[12] = tested on: ragweed (common ragweed, Ambrosia elatior); assay: Test A postemergence; settings: Ambrosia artemisiifolia, post-emergence, 240 h, Postemergence, read-out: Plant response rating, Ragweed
Method in brief: as §1

[13] = tested on: barnyardgrass (Echinochloa crus-galli); assay: Test A postemergence; settings: Echinochloa crus-galli, post-emergence, 240 h, Postemergence, read-out: Plant response rating, Barnyardgrass
Method in brief: as §1

[14] = tested on: ryegrass, Italian (Italian ryegrass, Lolium multiflorum); assay: Test A postemergence; settings: Lolium multiflorum, post-emergence, 240 h, Postemergence, read-out: Plant response rating, Ryegrass, Italian
Method in brief: as §1

[15] = tested on: giant foxtail (Setaria faberii); assay: Test A postemergence; settings: Setaria faberi, post-emergence, 240 h, Postemergence, read-out: Plant response rating, Foxtail, Giant
Method in brief: as §1

[16] = tested on: ducksalad (Heteranthera limosa); assay: Test B flooded paddy test; settings: Heteranthera limosa, Flood, 250 g ai/ha; scale of 0 to 100 where 0 is no effect and 100 is complete control; read-out: Ducksalad plant response rating
Method in brief: (§2)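 Percent control, visually estimated after 13–15 d in the greenhouse on a 0–100 basis, compares treated pots with untreated ones; compound was put into paddy water 3 cm above the soil when plants had two leaves.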

rice (Oryra sativa) = assay: Test B flooded paddy test; settings: Oryza sativa, Flood, 250 g ai/ha; scale of 0 to 100 where 0 is no effect and 100 is complete control; read-out: Rice plant response rating
Method in brief: as §2

[17] = tested on: sedge, umbrella (small-flower umbrella sedge, Cyperus difformis); assay: Test B flooded paddy test; settings: Cyperus difformis, Flood, 250 g ai/ha; scale of 0 to 100 where 0 is no effect and 100 is complete control; read-out: Sedge, Umbrella plant response rating
Method in brief: as §2

[18] = tested on: barnyardgrass (Echinochloa crus-galli); assay: Test B flooded paddy test; settings: Echinochloa crus-galli, Flood, 250 g ai/ha; scale of 0 to 100 where 0 is no effect and 100 is complete control; read-out: Barnyardgrass plant response rating
Method in brief: as §2

[19] = 125 g ai/ha, visual injury after approximately 10 d, 0 to 100 scale where 0 is no effect and 100 is complete control
[20] = 31 g ai/ha, visual injury after approx. 10 d, 0 to 100 scale, 0 no effect, 100 complete control

Compound Cc1oncc1NC(=O)[C@H]1C(=O)N(C)C[C@@H]1c1cc(F)cc(F)c1 [Compound 970] has a pest or weed control at 125 g/ha ([1]; 125 g ai/ha, visual injury rating after approximately 10 d, read-out: Pigweed plant response rating (0 to 100 scale, 0 is no effect, 100 is complete control)) of 0%, a pest or weed control at 31 g/ha ([1]; 31 g ai/ha, 0 to 100 scale (0 no effect, 100 complete control), read-out: Plant response rating, Pigweed) of 0% and a pest or weed control at 125 g/ha (Kochia (Kochia scoparia) [2]; 125 g ai/ha, visual injury rating after approximately 10 d, read-out: Kochia plant response rating (0 to 100 scale, 0 is no effect, 100 is complete control)) of 0%. The pest or weed control at 31 g/ha (Kochia (Kochia scoparia) [2]; 31 g ai/ha, 0 to 100 scale (0 no effect, 100 complete control), read-out: Plant response rating, Kochia) was 0%, the pest or weed control at 125 g/ha ([3]; 125 g ai/ha, visual injury rating after approximately 10 d, read-out: Ragweed plant response rating (0 to 100 scale, 0 is no effect, 100 is complete control)) was 0% and the pest or weed control at 31 g/ha ([3]; 31 g ai/ha, 0 to 100 scale (0 no effect, 100 complete control), read-out: Plant response rating, Ragweed) was 0%. The pest or weed control at 125 g/ha ([4]; 125 g ai/ha, visual injury rating after approximately 10 d, read-out: Barnyardgrass plant response rating (0 to 100 scale, 0 is no effect, 100 is complete control)) was 0%, the pest or weed control at 31 g/ha ([4]; 31 g ai/ha, 0 to 100 scale (0 no effect, 100 complete control), read-out: Plant response rating, Barnyardgrass) was 0% and the pest or weed control at 125 g/ha ([5]; 125 g ai/ha, visual injury rating after approximately 10 d, read-out: Ryegrass, Italian plant response rating (0 to 100 scale, 0 is no effect, 100 is complete control)) was 0%. It also gave a pest or weed control at 31 g/ha ([5]; 31 g ai/ha, 0 to 100 scale (0 no effect, 100 complete control), read-out: Plant response rating, Ryegrass, Italian) of 0%, a pest or weed control at 125 g/ha ([6]; 125 g ai/ha, visual injury rating after approximately 10 d, read-out: Foxtail, Giant plant response rating (0 to 100 scale, 0 is no effect, 100 is complete control)) of 80% and a pest or weed control at 31 g/ha ([6]; 31 g ai/ha, 0 to 100 scale (0 no effect, 100 complete control), read-out: Plant response rating, Foxtail, Giant) of 20%. The pest or weed control at 125 g/ha [7, 19] was 0%, the pest or weed control at 31 g/ha [7, 20] was 0% and the pest or weed control at 125 g/ha [8, 19] was 0%. The pest or weed control at 31 g/ha [8, 20] was 0%, the plant injury at 125 g/ha [9, 19] was 0% and the plant injury at 31 g/ha [9, 20] was 0%. It also gave a Corn plant response rating (crop injury, 0 = no effect, 100 = complete kill) at 125 g/ha (corn (Zea mays); [19]) of 0%, a Corn plant response rating (crop injury, 0 = no effect, 100 = complete kill) at 31 g/ha (corn (Zea mays); [20]) of 0% and a pest or weed control at 125 g/ha (Kochia (Kochia scoparia) [10]; [19]) of 0%. The pest or weed control at 31 g/ha (Kochia (Kochia scoparia) [10]; [20]) was 0%, the pest or weed control at 125 g/ha [11, 19] was 0% and the pest or weed control at 31 g/ha [11, 20] was 0%. For the same compound, the pest or weed control at 125 g/ha [12, 19] was 0%, the pest or weed control at 31 g/ha [12, 20] was 0% and the pest or weed control at 125 g/ha [13, 19] was 0%. It also gave a pest or weed control at 31 g/ha [13, 20] of 0%, a pest or weed control at 125 g/ha [14, 19] of 0% and a pest or weed control at 31 g/ha [14, 20] of 0%. It also gave a pest or weed control at 125 g/ha [15, 19] of 0%, a pest or weed control at 31 g/ha [15, 20] of 0% and a pest or weed control at 250 g/ha [16] of 0%. The pest or weed control at 250 g/ha (rice (Oryra sativa)) was 0%, the pest or weed control at 250 g/ha [17] was 0% and the pest or weed control at 250 g/ha [18] was 0%.
